Assay results: PMC7827406, “Structure–Activity Relationship (SAR) Study of Spautin-1 to Entail the Discovery of Novel NEK4 Inhibitors” (International Journal of Molecular Sciences, 2021)
Read-outs that look alike come from different tables or passages of the source.

What was measured:
Experiment in all cases: biochemical
Design in all cases: Eurofins KinaseProfiler full panel at Km ATP, residual kinase activity (%) relative to DMSO
[1] = target: EphA7(h) (Homo sapiens, UniProt Q15375)
Procedure, shortened: (§1)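 Compounds screened at 10 µM in radiometric kinase activity assays at Km ATP, reported as remaining kinase activity (%). A KINOMEscan competition-binding screen at 10 µM measured DNA-tagged kinase retained on immobilized active-site ligand by qPCR.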

[2] = target: T1, Rsk2(h) (Homo sapiens, UniProt P51812)
T1 construct: gene RPS6KA3
Procedure, shortened: as §1

[3] = target: FGFR1(h) (Homo sapiens, UniProt P11362)
Procedure, shortened: as §1

[4] = target: T2, B-Raf(h) (Homo sapiens, UniProt P15056)
T2 construct: gene BRAF
Procedure, shortened: as §1

[5] = target: T3, ALK4(h) (Homo sapiens, UniProt P36896)
T3 construct: gene ACVR1B
T3 sequence (P36896 1-505): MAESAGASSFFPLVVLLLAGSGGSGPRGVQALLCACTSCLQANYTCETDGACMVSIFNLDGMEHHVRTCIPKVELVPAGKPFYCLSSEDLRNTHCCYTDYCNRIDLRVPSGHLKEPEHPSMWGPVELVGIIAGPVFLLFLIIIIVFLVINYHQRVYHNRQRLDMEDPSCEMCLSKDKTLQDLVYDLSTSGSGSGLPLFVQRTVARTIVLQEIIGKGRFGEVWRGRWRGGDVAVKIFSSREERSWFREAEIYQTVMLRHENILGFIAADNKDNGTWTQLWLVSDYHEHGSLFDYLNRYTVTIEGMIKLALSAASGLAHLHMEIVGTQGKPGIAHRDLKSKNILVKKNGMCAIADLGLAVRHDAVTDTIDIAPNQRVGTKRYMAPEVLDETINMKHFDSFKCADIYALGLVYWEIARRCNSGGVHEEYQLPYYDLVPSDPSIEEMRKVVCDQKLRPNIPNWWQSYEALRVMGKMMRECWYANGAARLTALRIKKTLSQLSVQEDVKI
Procedure, shortened: as §1

[6] = target: T4, Txk(h) (Homo sapiens, UniProt P42681)
T4 sequence (P42681 1-527): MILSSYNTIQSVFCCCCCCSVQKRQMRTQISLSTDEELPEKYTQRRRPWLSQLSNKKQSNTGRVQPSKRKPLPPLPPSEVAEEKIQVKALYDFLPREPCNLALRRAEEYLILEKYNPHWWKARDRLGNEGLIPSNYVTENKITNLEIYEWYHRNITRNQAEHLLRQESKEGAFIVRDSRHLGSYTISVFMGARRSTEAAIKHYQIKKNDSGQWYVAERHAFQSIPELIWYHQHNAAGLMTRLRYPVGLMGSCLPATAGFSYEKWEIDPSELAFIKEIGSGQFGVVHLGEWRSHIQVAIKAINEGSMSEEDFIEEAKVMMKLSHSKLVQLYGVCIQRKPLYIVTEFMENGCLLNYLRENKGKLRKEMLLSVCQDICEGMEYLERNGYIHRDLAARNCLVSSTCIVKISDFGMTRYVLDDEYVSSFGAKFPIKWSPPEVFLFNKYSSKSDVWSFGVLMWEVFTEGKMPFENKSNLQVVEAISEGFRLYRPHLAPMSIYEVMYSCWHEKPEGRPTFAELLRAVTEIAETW
Procedure, shortened: as §1

[7] = target: T5, CaMKI(h) (Homo sapiens, UniProt Q14012)
T5 construct: gene CAMK1
Procedure, shortened: as §1

[8] = target: T6, Bmx(h) (Homo sapiens, UniProt P51813)
T6 sequence (P51813 1-675): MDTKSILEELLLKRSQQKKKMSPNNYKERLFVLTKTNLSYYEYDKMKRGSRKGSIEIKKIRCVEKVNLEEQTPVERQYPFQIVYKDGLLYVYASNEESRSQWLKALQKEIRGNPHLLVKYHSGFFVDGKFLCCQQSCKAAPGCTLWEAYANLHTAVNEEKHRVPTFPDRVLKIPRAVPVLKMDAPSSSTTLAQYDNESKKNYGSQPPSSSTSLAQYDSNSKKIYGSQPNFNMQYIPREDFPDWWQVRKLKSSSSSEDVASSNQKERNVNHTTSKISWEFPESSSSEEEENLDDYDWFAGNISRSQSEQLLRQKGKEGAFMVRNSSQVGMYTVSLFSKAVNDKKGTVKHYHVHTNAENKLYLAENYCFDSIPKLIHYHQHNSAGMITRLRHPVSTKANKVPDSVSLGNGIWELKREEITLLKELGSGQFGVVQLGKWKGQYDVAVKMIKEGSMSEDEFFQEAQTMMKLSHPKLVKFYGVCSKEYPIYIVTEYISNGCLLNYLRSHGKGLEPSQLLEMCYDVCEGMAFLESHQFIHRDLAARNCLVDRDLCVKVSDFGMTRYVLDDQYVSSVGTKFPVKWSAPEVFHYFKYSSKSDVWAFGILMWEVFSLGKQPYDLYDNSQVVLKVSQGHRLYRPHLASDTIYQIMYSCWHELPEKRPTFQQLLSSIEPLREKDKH
Procedure, shortened: as §1

[9] = read-out: Residual activity (%) 5at
[10] = read-out: Residual activity (%) 5as
[11] = read-out: Residual activity (%) 5ay
[12] = read-out: Residual activity (%) Spautin-1 5aa

T2 sequence (P15056 whole entry): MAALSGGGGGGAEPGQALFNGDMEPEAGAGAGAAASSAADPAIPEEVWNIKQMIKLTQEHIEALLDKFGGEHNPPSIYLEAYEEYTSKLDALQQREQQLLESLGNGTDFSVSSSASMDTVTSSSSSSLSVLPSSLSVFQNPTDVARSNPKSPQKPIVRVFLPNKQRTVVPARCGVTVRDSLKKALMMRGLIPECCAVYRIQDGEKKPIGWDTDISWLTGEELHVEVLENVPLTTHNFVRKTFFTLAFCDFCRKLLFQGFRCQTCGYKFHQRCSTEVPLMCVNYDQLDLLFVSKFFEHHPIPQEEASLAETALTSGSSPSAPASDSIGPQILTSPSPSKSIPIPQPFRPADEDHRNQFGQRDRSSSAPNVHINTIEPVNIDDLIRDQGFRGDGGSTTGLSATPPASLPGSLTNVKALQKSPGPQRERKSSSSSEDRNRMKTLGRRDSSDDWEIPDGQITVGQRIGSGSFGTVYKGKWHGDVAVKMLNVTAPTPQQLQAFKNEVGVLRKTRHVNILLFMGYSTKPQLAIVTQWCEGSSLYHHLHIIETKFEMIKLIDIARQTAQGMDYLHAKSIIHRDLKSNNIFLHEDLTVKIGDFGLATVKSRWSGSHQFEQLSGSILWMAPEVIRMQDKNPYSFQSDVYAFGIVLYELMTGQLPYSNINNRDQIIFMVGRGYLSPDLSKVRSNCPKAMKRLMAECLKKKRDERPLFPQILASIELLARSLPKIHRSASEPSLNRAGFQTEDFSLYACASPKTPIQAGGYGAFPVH
T1 sequence (P51812 whole entry): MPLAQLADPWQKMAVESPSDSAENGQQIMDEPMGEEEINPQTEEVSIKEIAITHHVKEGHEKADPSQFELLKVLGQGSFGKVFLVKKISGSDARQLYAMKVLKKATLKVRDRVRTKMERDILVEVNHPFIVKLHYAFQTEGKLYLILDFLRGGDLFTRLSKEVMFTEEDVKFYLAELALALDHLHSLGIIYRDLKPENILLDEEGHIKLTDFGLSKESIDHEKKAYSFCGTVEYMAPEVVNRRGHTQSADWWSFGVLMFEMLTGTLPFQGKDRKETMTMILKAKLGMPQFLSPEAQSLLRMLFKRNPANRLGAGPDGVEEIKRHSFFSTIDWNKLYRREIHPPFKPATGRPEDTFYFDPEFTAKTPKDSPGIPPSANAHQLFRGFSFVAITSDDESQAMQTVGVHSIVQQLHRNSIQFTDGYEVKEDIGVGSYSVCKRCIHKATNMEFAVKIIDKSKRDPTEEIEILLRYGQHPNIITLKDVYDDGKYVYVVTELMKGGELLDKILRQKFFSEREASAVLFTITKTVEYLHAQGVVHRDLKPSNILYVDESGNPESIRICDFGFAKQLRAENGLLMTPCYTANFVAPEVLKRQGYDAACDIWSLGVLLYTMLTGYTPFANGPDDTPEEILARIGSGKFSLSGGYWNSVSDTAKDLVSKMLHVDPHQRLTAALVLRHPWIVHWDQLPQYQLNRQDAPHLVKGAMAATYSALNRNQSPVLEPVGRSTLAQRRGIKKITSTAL
T5 sequence (Q14012 whole entry): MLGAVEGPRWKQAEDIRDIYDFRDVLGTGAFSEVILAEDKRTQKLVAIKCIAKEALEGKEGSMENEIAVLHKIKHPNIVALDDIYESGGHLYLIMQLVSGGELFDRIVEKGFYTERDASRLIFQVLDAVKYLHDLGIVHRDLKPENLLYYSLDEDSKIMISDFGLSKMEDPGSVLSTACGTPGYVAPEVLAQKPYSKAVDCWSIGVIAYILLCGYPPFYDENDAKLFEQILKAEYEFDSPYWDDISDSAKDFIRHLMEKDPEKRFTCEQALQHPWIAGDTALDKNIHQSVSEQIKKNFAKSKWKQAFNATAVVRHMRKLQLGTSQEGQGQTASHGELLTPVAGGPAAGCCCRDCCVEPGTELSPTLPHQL
Chain of FGFR1(h) (P11362 whole entry): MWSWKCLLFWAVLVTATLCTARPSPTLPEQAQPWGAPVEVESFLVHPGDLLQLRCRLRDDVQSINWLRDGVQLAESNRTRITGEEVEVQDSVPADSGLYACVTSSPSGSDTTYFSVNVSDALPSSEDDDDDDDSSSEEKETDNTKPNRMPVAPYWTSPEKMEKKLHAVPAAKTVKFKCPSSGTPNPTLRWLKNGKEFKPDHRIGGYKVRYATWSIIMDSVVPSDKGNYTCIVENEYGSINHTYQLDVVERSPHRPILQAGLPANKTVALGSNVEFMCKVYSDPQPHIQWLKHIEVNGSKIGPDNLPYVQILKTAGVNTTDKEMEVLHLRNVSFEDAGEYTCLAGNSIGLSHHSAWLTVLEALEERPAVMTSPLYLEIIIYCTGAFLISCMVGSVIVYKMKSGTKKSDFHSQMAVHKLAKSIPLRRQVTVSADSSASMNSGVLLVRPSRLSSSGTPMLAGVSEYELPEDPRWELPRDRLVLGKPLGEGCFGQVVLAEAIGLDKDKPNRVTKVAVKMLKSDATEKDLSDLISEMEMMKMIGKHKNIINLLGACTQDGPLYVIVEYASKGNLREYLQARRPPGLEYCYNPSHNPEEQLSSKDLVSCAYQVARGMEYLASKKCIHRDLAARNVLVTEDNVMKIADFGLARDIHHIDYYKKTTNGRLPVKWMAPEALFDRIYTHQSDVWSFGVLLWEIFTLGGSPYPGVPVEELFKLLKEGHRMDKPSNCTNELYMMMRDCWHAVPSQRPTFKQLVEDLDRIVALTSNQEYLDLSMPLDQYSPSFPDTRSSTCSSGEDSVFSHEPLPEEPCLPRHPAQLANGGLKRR
Chain of EphA7(h) (Q15375 whole entry): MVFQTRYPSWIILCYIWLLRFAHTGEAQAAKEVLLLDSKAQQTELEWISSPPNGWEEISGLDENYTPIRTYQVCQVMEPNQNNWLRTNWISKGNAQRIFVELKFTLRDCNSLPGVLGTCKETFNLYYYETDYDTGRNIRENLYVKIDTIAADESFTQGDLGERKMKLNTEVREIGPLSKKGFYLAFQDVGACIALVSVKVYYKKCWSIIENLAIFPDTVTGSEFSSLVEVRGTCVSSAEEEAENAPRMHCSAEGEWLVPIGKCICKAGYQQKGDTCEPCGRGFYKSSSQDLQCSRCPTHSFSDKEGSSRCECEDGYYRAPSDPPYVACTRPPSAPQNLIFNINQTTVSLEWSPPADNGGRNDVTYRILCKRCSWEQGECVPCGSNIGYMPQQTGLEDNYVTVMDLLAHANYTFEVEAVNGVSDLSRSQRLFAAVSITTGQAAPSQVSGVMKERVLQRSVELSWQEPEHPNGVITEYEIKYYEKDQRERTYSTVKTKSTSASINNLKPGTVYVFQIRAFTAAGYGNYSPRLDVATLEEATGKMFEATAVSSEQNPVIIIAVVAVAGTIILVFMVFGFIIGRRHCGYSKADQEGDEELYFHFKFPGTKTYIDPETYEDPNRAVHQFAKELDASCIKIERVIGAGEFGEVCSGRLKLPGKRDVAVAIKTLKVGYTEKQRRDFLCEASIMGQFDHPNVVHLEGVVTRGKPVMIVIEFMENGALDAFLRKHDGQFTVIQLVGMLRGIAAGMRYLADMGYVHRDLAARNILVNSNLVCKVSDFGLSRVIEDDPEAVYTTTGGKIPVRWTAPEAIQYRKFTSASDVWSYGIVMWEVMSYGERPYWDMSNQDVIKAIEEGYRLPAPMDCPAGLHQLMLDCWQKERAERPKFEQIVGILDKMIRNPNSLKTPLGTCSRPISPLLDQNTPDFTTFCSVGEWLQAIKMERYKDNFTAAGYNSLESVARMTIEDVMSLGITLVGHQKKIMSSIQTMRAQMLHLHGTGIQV

With Fc1ccc2ncnc(NCCc3ccc(Cl)cc3)c2c1 [5at, N-[2-(4-Chlorophenyl)Ethyl]-6-Fluoro-4-Quinazolinamine] as the compound, how does the remaining activity at 10 µM [1, 9] read?
Its remaining activity at 10 µM is 87%.

And the remaining activity at 10 µM [2, 9]?
Its remaining activity at 10 µM is 73%.

And the remaining activity at 10 µM [3, 9]?
The remaining activity at 10 µM was 123%.

And the remaining activity at 10 µM [4, 9]?
The remaining activity at 10 µM was 92%.

And the remaining activity at 10 µM [5, 9]?
Its remaining activity at 10 µM is 61%.

What about the remaining activity at 10 µM [6, 9] of the same compound?
The remaining activity at 10 µM was 82%.

What about the remaining activity at 10 µM [7, 9] of the same compound?
The remaining activity at 10 µM was 104%.

What about the remaining activity at 10 µM [8, 9] of the same compound?
Its remaining activity at 10 µM is 78%.

For Fc1ccc(CCNc2ncnc3ccc(F)cc23)cc1 [5as, 6-Fluoro-N-[2-(4-Fluorophenyl)Ethyl]-4-Quinazolinamine], which remaining activity at 10 µM [1, 10] is on record?
Its remaining activity at 10 µM is 84%.

And the remaining activity at 10 µM [2, 10]?
The remaining activity at 10 µM was 79%.

What about the remaining activity at 10 µM [3, 10] of the same compound?
Its remaining activity at 10 µM is 105%.

What about the remaining activity at 10 µM [4, 10] of the same compound?
The remaining activity at 10 µM was 83%.

And the remaining activity at 10 µM [5, 10]?
The remaining activity at 10 µM was 84%.

What about the remaining activity at 10 µM [6, 10] of the same compound?
The remaining activity at 10 µM was 83%.

And the remaining activity at 10 µM [7, 10]?
The remaining activity at 10 µM was 60%.

What about the remaining activity at 10 µM [8, 10] of the same compound?
Its remaining activity at 10 µM is 78%.

What does the source list for COc1ccc2ncnc(Nc3cccc(F)c3)c2c1 [5ay, N-(3-Fluorophenyl)-6-Methoxy-4-Quinazolinamine]?
remaining activity at 10 µM [1, 11]: 90%; remaining activity at 10 µM [2, 11]: 70%; remaining activity at 10 µM [3, 11]: 81%; remaining activity at 10 µM [4, 11]: 82%; remaining activity at 10 µM [5, 11]: 73%; remaining activity at 10 µM [6, 11]: 85%; remaining activity at 10 µM [7, 11]: 93%; remaining activity at 10 µM [8, 11]: 77%

For Fc1ccc(CNc2ncnc3ccc(F)cc23)cc1 [5aa, 6-Fluoro-N-(4-fluorobenzyl)-4-Quinazolinamine], which remaining activity at 10 µM [1, 12] is on record?
The remaining activity at 10 µM was 100%.

What about the remaining activity at 10 µM [2, 12] of the same compound?
The remaining activity at 10 µM was 93%.

What about the remaining activity at 10 µM [3, 12] of the same compound?
The remaining activity at 10 µM was 91%.

What about the remaining activity at 10 µM [4, 12] of the same compound?
The remaining activity at 10 µM was 90%.

What about the remaining activity at 10 µM [5, 12] of the same compound?
Its remaining activity at 10 µM is 121%.

What about the remaining activity at 10 µM [6, 12] of the same compound?
The remaining activity at 10 µM was 92%.

And the remaining activity at 10 µM [7, 12]?
Its remaining activity at 10 µM is 90%.

And the remaining activity at 10 µM [8, 12]?
The remaining activity at 10 µM was 79%.
